We go through 7 compounds from patent US5502202A, “Aminoalkylthiazole derivative” (Taisho Pharmaceutical Co., Ltd., priority 1991, dated 1996).

For test [1], the target named is sigma receptor (Rattus norvegicus, UniProt Q9R0C9). As to the kind of experiment: biochemical. It is filed as binding, rat (male Wistar). As to conditions: for IC50: 2 nM [3H](+)-3-PPP, rat whole brain membrane, pH 8.0, 21° C., 90 min; for inhibition at 1 µM: pH 8, read-out: Sigma receptor Inhibition % (1 μM). As to the method: (§1) Male Wistar rats were employed as test animals.
(§2) Radiolabeled ^3 H! […] (-)-sulpiride was used as a compound specifically binding to dopamine D2 receptor.
(§3) Reactions of these ^3 H! compounds binding to the corresponding receptors were performed respectively in accordance with the following methods (1) and (2) described in Molecular Pharmacology, 32, 772 (1987), Journal of Pharmacy and Pharmacology, 32, 441 (1980) and Molecular Pharmacology, 32, 820 (1987).
(§4) After the completion of each reaction, the reaction mixture was filtered with suction into a glass filter (GF/B) and the radioactivity of the filter paper was measured with a liquid scintillation spectrometer.
(§5) (-)-sulpiride, and the difference between the total binding (the value measured by adding no test drug) and the nonspecific binding was referred to as the specific binding.
(§6) By reacting the ^3 H! compound at a definite concentration (2 nM) with the test drugs at various concentrations under the conditions as specified in the above (1) and (2), inhibition curves were obtained. On the basis of these inhibition curves, the concentration of each test drug causing 50% inhibition of the specific binding (IC50) was determined.

For test [2], the system named is (+)-SKF 10047-induced stereotypical behavior. As to the kind of experiment: Test on action on (+)-SKF 10047-induced abnormal (stereotypical) behaviors. It is filed as in vivo, mouse (male ICR). The settings on record: Mus musculus; oral, 30 min (35 min for drug C) before 30 mg/kg i.p. (+)-SKF 10047; scores over 40 min; read-out: ED25 (stereotypical behavior suppression). Here is the method:
TEST EXAMPLE 2 Test on Action on (+)-[…] Abnormal Behaviors! Male ICR mice (Nippon Charles River) aged 4 to 5 weeks were divided into groups each having 10 animals and used. Each animal was separately fed in a small transparent cage and fully familiarized with its environment. To the animals, test drugs […] % gum arabic at various concentrations were orally administered. […] Since 10 minutes thereafter, stereotypical behavior scores were measured for 40 minutes at intervals of 5 minutes. (Test drug) (Stereotypical behavior score) 0: normal behaviors 1: sniffing, standing up 2: discontinuous movement, sniffing stronger than 1 3: circling, moving backward 4: continuous circling 5: bending and stretching of limbs, head and neck The stereotypical behavior suppression ratio was determined on the basis of the sum of the scores of the test groups measured 8 times within 40 minutes by referring the sum of the score of a solvent (distilled water for injection) administered-group measured 8 times within 40 minutes as to 100%. Each ED25 value was calculated by determining the slope of a line of the suppression ratio formed by the method of least squares.

Test [3] concerns the target sigma receptor. As to conditions: rimcazole, cited from European Journal of Pharmacology, 155, 345 (1988); cited from earlier work.
Test [4] addresses dopamine D2 receptor. The settings on record: rimcazole, cited; value for [3H] spiperone binding; cited from earlier work.
In test [5] the target is dopamine D2 receptor (Rattus norvegicus, UniProt P61169). Description: biochemical. The format is binding, rat (male Wistar). The settings on record: for IC50: 2 nM [3H](-)-sulpiride, rat striata membrane, pH 7.7, 37° C., 10 min; for inhibition at 1 µM: pH 7.7, read-out: Dopamine D2 receptor Inhibition % (1 μM). As to the method: as §1, §2, §3
(2) ^3 H! (-)-sulpiride binding:
(-)-sulpiride and a test drug were incubated in 1 ml of a 50 mM Tris-HCl buffer solution (pH 7.7) at 37° C. for 10 minutes.
as §4, §5, §6

Test [6] concerns dopamine autoreceptor. The settings on record: reported in literature, cited from earlier work.

Molecules are shown by their SMILES. Counter-ions that a name gives are not always drawn.

dopamine D2 receptor (Rattus norvegicus, UniProt P61169), sequence (P61169 whole entry): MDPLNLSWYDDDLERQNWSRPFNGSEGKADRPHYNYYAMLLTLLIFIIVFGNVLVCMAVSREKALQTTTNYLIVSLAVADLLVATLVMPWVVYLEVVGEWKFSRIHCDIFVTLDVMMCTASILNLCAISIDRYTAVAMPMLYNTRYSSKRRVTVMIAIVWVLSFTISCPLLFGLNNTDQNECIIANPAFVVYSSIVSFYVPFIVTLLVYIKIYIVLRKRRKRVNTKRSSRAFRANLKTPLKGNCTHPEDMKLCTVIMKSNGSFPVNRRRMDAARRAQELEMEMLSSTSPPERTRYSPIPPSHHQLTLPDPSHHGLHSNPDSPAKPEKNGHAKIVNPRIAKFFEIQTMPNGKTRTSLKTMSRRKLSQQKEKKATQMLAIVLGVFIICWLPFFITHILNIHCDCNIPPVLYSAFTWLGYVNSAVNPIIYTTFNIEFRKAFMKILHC
sigma receptor (Rattus norvegicus, UniProt Q9R0C9), sequence (Q9R0C9 whole entry): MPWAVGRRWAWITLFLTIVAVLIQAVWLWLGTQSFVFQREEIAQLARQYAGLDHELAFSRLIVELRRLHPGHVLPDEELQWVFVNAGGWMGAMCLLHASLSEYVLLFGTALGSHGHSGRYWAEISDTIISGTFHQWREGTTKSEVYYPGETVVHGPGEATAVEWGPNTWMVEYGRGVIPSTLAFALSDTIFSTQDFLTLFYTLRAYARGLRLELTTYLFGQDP

Turning to `CCCN1CCCC(c2cccc(O)c2)C1` (single isomer, unassigned) [3-PPP, 3-(3-hydroxyphenyl)-N-n-propylpiperidine, reference compound], in test [1], half-maximal inhibition (IC50) was put at 24.3 nM.

Turning to `OC(CCCN1CCN(c2ncc(F)cn2)CC1)c1ccc(F)cc1` (stereo not drawn) [BMY 14802], the ED25 in test [2] worked out at 7.6 mg/kg.

For the compound `C[C@@H]1CN(CCCn2c3ccccc3c3ccccc32)C[C@H](C)N1` [Rimcazole], the ED25 in test [2] stood at 37.9 mg/kg. The IC50 in test [3] was 1460 nM; in test [4], 86000 nM.

`CCCCCN(CCCCC)CCc1sc(N)nc1-c1ccc(Br)cc1` [Test Drug A (Table 1), 2Amino-4-(4-bromophenyl)-5-(2-di-n-pentylaminoethyl)-thiazole dihydrochloride]: in test [1], the midpoint of inhibition, the IC50, lay at 8.7 nM and the inhibition at 1 µM is 93.1%.

For the compound `CCCCCCN(CCCCCC)CCc1sc(N)nc1-c1ccc(Br)cc1.Cl.Cl` [Test Drug B (Table 1), 2-Amino-4-(4-bromophenyl)-5-(2-di-n-hexylaminoethyl)thiazole dihydrochloride], in test [5], the IC50 is > 1000 nM and the inhibition at 1 µM is -33.3%. Further, in test [1], the IC50 amounted to 1.6 nM and the inhibition at 1 µM came out at 100%. For the same compound, the ED25 in test [2] turned out to be 0.019 mg/kg.

Take `CCCCCCCCN(CCCCCCCC)CCc1sc(N)nc1-c1ccc(Br)cc1` [Test Drug C (Table 1), 2Amino-4-(4-bromophenyl)-5-(2-di-n-octylaminoethyl)-thiazole dihydrochloride]: in test [5], the IC50 is > 1000 nM and the inhibition at 1 µM is -31%. In addition, in test [1], the IC50 is 3.2 nM and the inhibition at 1 µM is 99.7%.

Take `C=CCN1CCc2nc(N)sc2CC1` [talipexole]: the “effect on dopamine nerve system (in words)” value in test [6] (by stimulating the presynaptic autoreceptor) is “suppresses nerve ignition and biosynthesis and liberation of dopamine”. In addition, the “selective dopamine autoreceptor agonism (in words)” value in test [6] was “selective dopamine autoreceptor agonist”.

By IC50 is commonly meant the concentration needed to halve the response being measured. As usually defined, the inhibition is the relative decrease from the control value, in per cent.
